Calls of active or inactive are those of the source. No rule for the calls is given here.
Columns and labels:
[1] = molecular target: 5-hydroxytryptamine receptor 1A (Homo sapiens) (UniProt P08908); assay: PubChem AID 1788; details: MDS Pharma lead profiling panel, radioligand binding; Serotonin (5-Hydroxytryptamine) 5-HT1A (human); at 10 µM; hits give high values
[2] = molecular target: Potassium Channel K ATP (hamster) (UniProt P49658); assay: PubChem AID 1788; details: MDS Pharma lead profiling panel, radioligand binding, at 10 µM, hits give high values
Adenosine A1 (human) = assay: PubChem AID 1788; details: MDS Pharma lead profiling panel, radioligand binding, at 10 µM, hits give high values
[3] = test system: Leukotriene Cysteinyl CysLT1 (human); assay: PubChem AID 1788; details: MDS Pharma lead profiling panel, radioligand binding, at 10 µM, hits give high values
[4] = test system: Calcium channel N-type (rat); assay: PubChem AID 1788; details: MDS Pharma lead profiling panel, radioligand binding, at 10 µM, hits give high values
Dopamine D4.2 (human) = assay: PubChem AID 1788; details: MDS Pharma lead profiling panel, radioligand binding, at 10 µM, hits give high values
Adenosine A2 (human) = assay: PubChem AID 1788; details: MDS Pharma lead profiling panel, radioligand binding, at 10 µM, hits give high values
Sigma s1 (human) = assay: PubChem AID 1788; details: MDS Pharma lead profiling panel, radioligand binding, at 10 µM, hits give high values
Transporter, GABA (rat) = assay: PubChem AID 1788; details: MDS Pharma lead profiling panel, radioligand binding, at 10 µM, hits give high values
Histamine H2 (human) = assay: PubChem AID 1788; details: MDS Pharma lead profiling panel, radioligand binding, at 10 µM, hits give high values
Thyroid Hormone (rat) = assay: PubChem AID 1788; details: MDS Pharma lead profiling panel, radioligand binding, at 10 µM, hits give high values
Adenosine A3 (human) = assay: PubChem AID 1788; details: MDS Pharma lead profiling panel, radioligand binding, at 10 µM, hits give high values
Interleukin IL-1 (mouse) = assay: PubChem AID 1788; details: MDS Pharma lead profiling panel, radioligand binding, at 10 µM, hits give high values
[5] = molecular target: Estrogen receptor (Homo sapiens) (UniProt P03372); assay: PubChem AID 1788; details: MDS Pharma lead profiling panel, radioligand binding; Estrogen ER a (human); at 10 µM; hits give high values
[6] = molecular target: Muscarinic acetylcholine receptor M3 (Homo sapiens) (UniProt P20309); assay: PubChem AID 1788; details: MDS Pharma lead profiling panel, radioligand binding, at 10 µM, hits give high values
[7] = molecular target: Beta-2 adrenergic receptor (Homo sapiens) (UniProt P07550); assay: PubChem AID 1788; details: MDS Pharma lead profiling panel, radioligand binding; Adrenergic b2 (human); at 10 µM; hits give high values
[8] = molecular target: Alpha-2A adrenergic receptor (Homo sapiens) (UniProt P08913); assay: PubChem AID 1788; details: MDS Pharma lead profiling panel, radioligand binding; Adrenergic a2A (human); at 10 µM; hits give high values
PubChem AID 1788 = details: MDS Pharma lead profiling panel, radioligand binding; GABAA central (rat), Muscimol site; at 10 µM; hits give high values
Adrenergic a1B (rat) = assay: PubChem AID 1788; details: MDS Pharma lead profiling panel, radioligand binding, at 10 µM, hits give high values
[9] = molecular target: Glucocorticoid receptor (Homo sapiens) (UniProt P04150); assay: PubChem AID 1788; details: MDS Pharma lead profiling panel, radioligand binding, at 10 µM, hits give high values
[10] = test system: Androgen (testosterone) AR (rat); assay: PubChem AID 1788; details: MDS Pharma lead profiling panel, radioligand binding, at 10 µM, hits give high values
Melatonin MT1 (human) = assay: PubChem AID 1788; details: MDS Pharma lead profiling panel, radioligand binding, at 10 µM, hits give high values
[11] = molecular target: D(2) dopamine receptor (Homo sapiens) (UniProt P14416); assay: PubChem AID 1788; details: MDS Pharma lead profiling panel, radioligand binding; Dopamine D2S (human); at 10 µM; hits give high values
Endothelin ETB (human) = assay: PubChem AID 1788; details: MDS Pharma lead profiling panel, radioligand binding, at 10 µM, hits give high values
Sigma s2 (rat) = assay: PubChem AID 1788; details: MDS Pharma lead profiling panel, radioligand binding, at 10 µM, hits give high values
Glutamate NMDA (rat) = assay: PubChem AID 1788; details: MDS Pharma lead profiling panel, radioligand binding, at 10 µM, hits give high values
Glutamate Kainate (rat) = assay: PubChem AID 1788; details: MDS Pharma lead profiling panel, radioligand binding, at 10 µM, hits give high values
[12] = test system: G protein-coupled receptor GPR103 (human); assay: PubChem AID 1788; details: MDS Pharma lead profiling panel, radioligand binding, at 10 µM, hits give high values
[13] = test system: Nicotinic Acetylcholine (human); assay: PubChem AID 1788; details: MDS Pharma lead profiling panel, radioligand binding, at 10 µM, hits give high values
Bradykinin B2 (human) = assay: PubChem AID 1788; details: MDS Pharma lead profiling panel, radioligand binding, at 10 µM, hits give high values
[14] = test system: Epidermal Growth Factor (EGF) (human); assay: PubChem AID 1788; details: MDS Pharma lead profiling panel, radioligand binding, at 10 µM, hits give high values
[15] = molecular target: Neuropeptide Y receptor type 1 (Homo sapiens) (UniProt P25929); assay: PubChem AID 1788; details: MDS Pharma lead profiling panel, radioligand binding; Neuropeptide Y Y1 (human); at 10 µM; hits give high values
[16] = test system: Transporter, Dopamine (DAT) (human); assay: PubChem AID 1788; details: MDS Pharma lead profiling panel, radioligand binding, at 10 µM, hits give high values
[17] = molecular target: Muscarinic acetylcholine receptor M2 (Homo sapiens) (UniProt P08172); assay: PubChem AID 1788; details: MDS Pharma lead profiling panel, radioligand binding, at 10 µM, hits give high values

Measured: inhibition

5-hydroxytryptamine receptor 1A (Homo sapiens), sequence (P08908 whole entry, looked up): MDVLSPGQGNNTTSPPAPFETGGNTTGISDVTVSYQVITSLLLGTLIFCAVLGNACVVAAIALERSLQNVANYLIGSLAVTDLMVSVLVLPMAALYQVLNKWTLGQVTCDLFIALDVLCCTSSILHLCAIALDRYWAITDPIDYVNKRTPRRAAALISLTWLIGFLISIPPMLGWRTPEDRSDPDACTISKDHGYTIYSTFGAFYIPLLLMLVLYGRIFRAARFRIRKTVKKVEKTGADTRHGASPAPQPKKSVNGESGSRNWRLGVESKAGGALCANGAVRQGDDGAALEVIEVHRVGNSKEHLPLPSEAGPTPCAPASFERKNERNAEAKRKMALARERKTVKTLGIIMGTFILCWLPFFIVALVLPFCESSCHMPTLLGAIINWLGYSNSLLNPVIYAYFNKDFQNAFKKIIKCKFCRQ
Muscarinic acetylcholine receptor M3 (Homo sapiens), sequence (P20309 whole entry, looked up): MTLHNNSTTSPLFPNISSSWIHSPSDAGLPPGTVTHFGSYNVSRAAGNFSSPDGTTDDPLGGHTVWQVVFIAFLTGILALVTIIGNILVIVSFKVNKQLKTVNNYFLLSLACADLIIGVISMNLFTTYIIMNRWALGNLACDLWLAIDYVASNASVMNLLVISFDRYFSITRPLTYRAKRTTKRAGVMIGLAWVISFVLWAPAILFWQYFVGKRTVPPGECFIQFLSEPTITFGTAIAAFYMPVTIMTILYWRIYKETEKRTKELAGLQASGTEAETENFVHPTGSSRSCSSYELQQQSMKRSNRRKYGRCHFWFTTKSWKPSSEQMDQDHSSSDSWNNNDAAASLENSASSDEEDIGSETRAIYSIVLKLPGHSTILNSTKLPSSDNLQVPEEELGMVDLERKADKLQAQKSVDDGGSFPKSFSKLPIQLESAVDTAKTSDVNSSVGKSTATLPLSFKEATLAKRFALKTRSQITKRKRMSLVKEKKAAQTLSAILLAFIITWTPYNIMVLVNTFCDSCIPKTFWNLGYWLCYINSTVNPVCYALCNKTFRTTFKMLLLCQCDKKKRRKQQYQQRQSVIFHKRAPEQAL
Muscarinic acetylcholine receptor M2 (Homo sapiens), sequence (P08172 whole entry, looked up): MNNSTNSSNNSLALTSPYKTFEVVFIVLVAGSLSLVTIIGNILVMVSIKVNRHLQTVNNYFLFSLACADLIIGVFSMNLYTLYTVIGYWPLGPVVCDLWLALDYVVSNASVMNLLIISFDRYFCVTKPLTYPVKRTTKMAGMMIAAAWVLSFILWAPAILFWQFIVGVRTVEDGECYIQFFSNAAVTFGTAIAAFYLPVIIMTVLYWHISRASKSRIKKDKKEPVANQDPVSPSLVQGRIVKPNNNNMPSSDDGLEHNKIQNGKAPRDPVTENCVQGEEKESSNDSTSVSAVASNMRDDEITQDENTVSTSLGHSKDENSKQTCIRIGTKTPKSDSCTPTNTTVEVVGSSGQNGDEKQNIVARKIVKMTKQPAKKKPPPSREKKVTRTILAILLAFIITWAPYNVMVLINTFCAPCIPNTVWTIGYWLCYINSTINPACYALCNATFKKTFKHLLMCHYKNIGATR
D(2) dopamine receptor (Homo sapiens), sequence (P14416 whole entry, looked up): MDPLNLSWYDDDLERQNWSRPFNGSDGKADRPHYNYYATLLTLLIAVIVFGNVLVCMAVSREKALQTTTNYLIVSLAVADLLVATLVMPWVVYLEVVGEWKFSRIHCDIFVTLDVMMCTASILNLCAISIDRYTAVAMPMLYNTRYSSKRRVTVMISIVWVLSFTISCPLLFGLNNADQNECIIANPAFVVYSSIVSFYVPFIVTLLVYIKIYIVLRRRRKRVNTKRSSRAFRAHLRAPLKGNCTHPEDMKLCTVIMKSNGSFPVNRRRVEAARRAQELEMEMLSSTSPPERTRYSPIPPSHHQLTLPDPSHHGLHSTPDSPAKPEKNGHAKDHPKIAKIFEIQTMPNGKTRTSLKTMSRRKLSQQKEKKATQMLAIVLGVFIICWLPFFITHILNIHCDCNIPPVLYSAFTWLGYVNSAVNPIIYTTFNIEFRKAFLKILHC
Neuropeptide Y receptor type 1 (Homo sapiens), sequence (P25929 whole entry, looked up): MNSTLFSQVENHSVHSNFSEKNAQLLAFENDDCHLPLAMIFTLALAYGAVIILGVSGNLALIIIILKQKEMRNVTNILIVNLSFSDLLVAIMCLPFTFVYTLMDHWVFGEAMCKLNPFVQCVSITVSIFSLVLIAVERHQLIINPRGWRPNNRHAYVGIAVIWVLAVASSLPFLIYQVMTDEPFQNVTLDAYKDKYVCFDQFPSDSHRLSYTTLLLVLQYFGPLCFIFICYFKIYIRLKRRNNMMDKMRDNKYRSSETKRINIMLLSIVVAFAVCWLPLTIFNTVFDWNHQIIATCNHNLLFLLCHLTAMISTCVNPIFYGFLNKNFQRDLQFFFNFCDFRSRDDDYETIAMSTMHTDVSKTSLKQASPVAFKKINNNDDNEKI
Beta-2 adrenergic receptor (Homo sapiens), sequence (P07550 whole entry, looked up): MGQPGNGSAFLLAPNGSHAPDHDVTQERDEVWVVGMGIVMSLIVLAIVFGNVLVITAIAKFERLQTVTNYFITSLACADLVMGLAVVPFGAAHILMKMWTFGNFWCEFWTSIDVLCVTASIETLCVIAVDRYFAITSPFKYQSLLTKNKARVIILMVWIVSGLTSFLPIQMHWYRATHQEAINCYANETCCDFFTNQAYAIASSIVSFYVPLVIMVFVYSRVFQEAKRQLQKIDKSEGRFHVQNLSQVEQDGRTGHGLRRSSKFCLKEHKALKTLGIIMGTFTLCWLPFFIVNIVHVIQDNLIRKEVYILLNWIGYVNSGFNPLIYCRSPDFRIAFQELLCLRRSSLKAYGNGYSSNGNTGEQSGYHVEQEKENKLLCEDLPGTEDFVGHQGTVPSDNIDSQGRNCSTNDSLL
Alpha-2A adrenergic receptor (Homo sapiens), sequence (P08913 whole entry, looked up): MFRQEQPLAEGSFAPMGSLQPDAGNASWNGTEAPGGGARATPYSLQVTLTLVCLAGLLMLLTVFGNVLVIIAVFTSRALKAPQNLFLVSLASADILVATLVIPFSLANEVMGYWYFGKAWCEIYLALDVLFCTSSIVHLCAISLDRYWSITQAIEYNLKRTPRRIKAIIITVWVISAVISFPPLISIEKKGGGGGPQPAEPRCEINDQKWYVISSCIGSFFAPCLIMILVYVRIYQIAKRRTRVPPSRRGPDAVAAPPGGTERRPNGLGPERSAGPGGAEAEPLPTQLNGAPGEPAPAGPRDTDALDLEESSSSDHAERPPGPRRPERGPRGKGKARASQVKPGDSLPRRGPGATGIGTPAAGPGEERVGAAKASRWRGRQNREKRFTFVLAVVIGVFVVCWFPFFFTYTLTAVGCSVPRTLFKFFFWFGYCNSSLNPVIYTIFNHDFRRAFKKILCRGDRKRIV
Glucocorticoid receptor (Homo sapiens), sequence (P04150 whole entry, looked up): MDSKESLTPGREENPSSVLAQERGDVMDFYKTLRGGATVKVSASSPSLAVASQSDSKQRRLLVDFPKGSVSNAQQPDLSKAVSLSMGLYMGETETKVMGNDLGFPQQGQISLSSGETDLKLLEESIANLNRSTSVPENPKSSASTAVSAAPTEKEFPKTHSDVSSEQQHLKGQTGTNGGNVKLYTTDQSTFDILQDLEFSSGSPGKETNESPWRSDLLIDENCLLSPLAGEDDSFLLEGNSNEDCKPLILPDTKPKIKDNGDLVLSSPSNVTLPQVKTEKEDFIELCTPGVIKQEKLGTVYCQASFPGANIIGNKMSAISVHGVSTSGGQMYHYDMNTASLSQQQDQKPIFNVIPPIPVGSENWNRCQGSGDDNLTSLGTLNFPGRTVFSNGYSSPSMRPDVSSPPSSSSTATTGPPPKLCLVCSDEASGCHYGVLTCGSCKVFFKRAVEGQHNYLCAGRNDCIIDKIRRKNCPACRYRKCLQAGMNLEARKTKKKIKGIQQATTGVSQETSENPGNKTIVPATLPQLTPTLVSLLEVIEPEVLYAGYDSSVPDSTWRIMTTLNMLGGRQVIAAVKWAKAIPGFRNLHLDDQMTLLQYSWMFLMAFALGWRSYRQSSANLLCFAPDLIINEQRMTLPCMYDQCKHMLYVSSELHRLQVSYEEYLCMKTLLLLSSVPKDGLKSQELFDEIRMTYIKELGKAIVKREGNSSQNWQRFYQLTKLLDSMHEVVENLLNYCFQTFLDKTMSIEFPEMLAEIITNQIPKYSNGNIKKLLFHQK
Estrogen receptor (Homo sapiens), sequence (P03372 whole entry, looked up): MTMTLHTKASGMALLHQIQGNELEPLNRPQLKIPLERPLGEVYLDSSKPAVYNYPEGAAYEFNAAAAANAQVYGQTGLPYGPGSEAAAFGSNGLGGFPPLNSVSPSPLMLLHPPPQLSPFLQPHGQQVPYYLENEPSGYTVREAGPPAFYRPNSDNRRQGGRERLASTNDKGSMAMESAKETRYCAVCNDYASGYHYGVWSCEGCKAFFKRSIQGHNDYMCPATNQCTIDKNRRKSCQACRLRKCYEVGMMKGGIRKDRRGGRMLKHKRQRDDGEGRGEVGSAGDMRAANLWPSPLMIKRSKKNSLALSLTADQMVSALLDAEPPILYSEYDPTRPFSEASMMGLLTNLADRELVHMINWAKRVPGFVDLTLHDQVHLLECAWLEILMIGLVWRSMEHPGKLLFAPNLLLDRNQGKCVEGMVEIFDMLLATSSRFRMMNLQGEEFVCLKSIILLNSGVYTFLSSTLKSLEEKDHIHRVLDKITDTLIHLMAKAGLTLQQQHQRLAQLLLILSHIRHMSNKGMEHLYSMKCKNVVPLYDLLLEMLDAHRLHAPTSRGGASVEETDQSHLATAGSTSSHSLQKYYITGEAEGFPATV
Potassium Channel K ATP (hamster), sequence (P49658 whole entry, looked up): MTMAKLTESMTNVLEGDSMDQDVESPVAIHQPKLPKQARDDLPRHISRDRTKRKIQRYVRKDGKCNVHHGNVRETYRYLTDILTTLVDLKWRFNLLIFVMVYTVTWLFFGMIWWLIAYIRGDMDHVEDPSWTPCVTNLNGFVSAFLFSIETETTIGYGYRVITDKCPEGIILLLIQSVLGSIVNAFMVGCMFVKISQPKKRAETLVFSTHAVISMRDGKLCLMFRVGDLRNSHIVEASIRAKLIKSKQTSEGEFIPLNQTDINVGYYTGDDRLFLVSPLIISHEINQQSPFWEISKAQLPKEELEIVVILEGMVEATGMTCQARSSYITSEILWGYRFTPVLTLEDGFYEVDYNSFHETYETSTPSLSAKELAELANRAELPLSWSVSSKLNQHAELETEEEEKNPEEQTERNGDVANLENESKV

CCOC(=O)N1CCC(NCCNC(=O)c2ccccc2C)CC1
inactive: [1] 25% | [2] -9% | Adenosine A1 (human) -4% | [3] 5% | [4] 8% | Dopamine D4.2 (human) 52% | Adenosine A2 (human) 7% | Sigma s1 (human) 69% | Transporter, GABA (rat) 3% | Histamine H2 (human) 27% | Thyroid Hormone (rat) -8% | Adenosine A3 (human) 7% | Interleukin IL-1 (mouse) -1% | [5] 5% | [6] -14% | [7] -1% | [8] 22% | PubChem AID 1788 7% | Adrenergic a1B (rat) 20% | [9] -8% | [10] -2% | Melatonin MT1 (human) 25% | [11] 29% | Endothelin ETB (human) -4% | Sigma s2 (rat) 44% | Glutamate NMDA (rat); Glycine site -11% | Glutamate NMDA (rat); Phencyclidine site 7% | Glutamate NMDA (rat); agonism site 13% | Glutamate Kainate (rat) 9% | [12] 9% | [13] 2% | Bradykinin B2 (human) 9% | [14] -3% | [15] 0% | [16] -1% | [17] 1%

Source: PubChem BioAssay AID1788 (Vanderbilt High Throughput Screening Facility, 2009)
